Data published in ChEMBL document CHEMBL3997846, “Synthesis and activity of nucleoside-based antiprotozoan compounds” (Bioorg Med Chem, 2017).

Key:
[1] = test system: Trypanosoma brucei rhodesiense; assay: Antitrypanosomal activity against bloodstream forms of Trypanosoma brucei rhodesiense STIB900 trypomastigotes after 72 hrs by alamar blue assay; assay type: functional; conditions: STIB900, 72 h
[2] = Selectivity index, ratio of IC50 for rat L6 cells to IC50 for bloodstream forms of Trypanosoma brucei rhodesiense STIB900 trypomastigotes; assay type: toxicity; conditions: read-out: Ratio IC50
Trypanosoma cruzi = assay: Antitrypanosomal activity against Trypanosoma cruzi Tulahuen strain C2C4 amastigote forms harboring LacZ infected in rat L6 cells after 96 hrs by CPRG/Nonidet reagent based photometric method; assay type: functional, cell-based; conditions: Tulahuen strain C2C4, L6, 96 h
[3] = Selectivity index, ratio of IC50 for rat L6 cells to IC50 for Trypanosoma cruzi Tulahuen strain C2C4 amastigote forms harboring LacZ infected in rat L6 cells; assay type: toxicity, cell-based; conditions: read-out: Ratio IC50
Leishmania donovani = assay: Antileishmanial activity against Leishmania donovani MHOM/SD/62/ISCL2D axenic amastigotes after 72 hrs by alamar blue assay; assay type: functional
[4] = Selectivity index, ratio of IC50 for rat L6 cells to IC50 for Leishmania donovani MHOM/SD/62/ISCL2D axenic amastigotes; assay type: toxicity; conditions: read-out: Ratio IC50
L6 = assay: Cytotoxicity against rat L6 cells assessed as growth inhibition after 72 hrs by alamar blue assay; assay type: cell-based; conditions: L6, 72 h
Plasmodium falciparum = assay: Antiplasmodial activity against chloroquine resistant Plasmodium falciparum K1 erythrocytic stage assessed as reduction in [3H]hypoxanthine incorporation after 48 hrs by liquid scintillation counting assay; assay type: functional
[5] = Selectivity index, ratio of IC50 for rat L6 cells to IC50 for chloroquine resistant Plasmodium falciparum K1 erythrocytic stage; assay type: toxicity; conditions: read-out: Ratio IC50

| Structure (SMILES) | IC50 [1] | selectivity ratio [2] | IC50 (Trypanosoma cruzi) | selectivity ratio [3] | IC50 (Leishmania donovani) | selectivity ratio [4] | IC50 (L6) | IC50 (Plasmodium falciparum) | selectivity ratio [5] |
| --- | --- | --- | --- | --- | --- | --- | --- | --- | --- |
| CNc1nc(C#N)nc2c1ncn2[C@@H]1O[C@H](C)[C@@H](O)[C@H]1O | 111 µM | 0.8 | 45 µM | 2 | 148 µM | 0.6 | – | – | – |
| CNc1nc(F)nc2c1ncn2[C@@H]1O[C@H](C)[C@@H](O)[C@H]1O | 194 µM | 1 | 20 µM | 12 | > 353 µM | 0.7 | – | – | – |
| CC(=O)O[C@@H]1[C@H](OC(C)=O)[C@@H](C[S+](C)[O-])O[C@H]1n1cnc2c(N)nc(Cl)nc21 (stereo not given in full) | 106 µM | 2 | 106 µM | 2 | > 230 µM | < 0.7 | 168 µM | 106 µM | 2 |
| CSC[C@H]1O[C@@H](n2cnc3c(/N=C/N(C)C)nc(F)nc32)[C@H](O)[C@@H]1O | 62 µM | < 0.1 | 114 µM | < 0.1 | 2.5 µM | 0.6 | – | – | – |
| CSC[C@H]1O[C@@H](n2cnc3c(N)nc(C#N)nc32)[C@H](O)[C@@H]1O | 66 µM | 2 | 150 µM | 1 | 266 µM | 0.6 | – | – | – |
| C[S+]([O-])C[C@H]1O[C@@H](n2cnc3c(N)nc(Cl)nc32)[C@H](O)[C@@H]1O (stereo not given in full) | 75 µM | 3 | > 260 µM | < 1 | > 260 µM | < 1 | 259 µM | 14 µM | 18 |
| CSC[C@H]1O[C@@H](n2cnc3c(N)nc(Cl)nc32)[C@H](OC(C)=O)[C@@H]1OC(C)=O | 31 µM | 7 | 161 µM | 1 | 39 µM | 6 | 216 µM | 12 µM | 18 |
| CSC[C@H]1O[C@@H](n2cnc3c(N(C)N=O)nc(F)nc32)[C@H](O)[C@@H]1O | 56 µM | 2 | 129 µM | 0.9 | 190 µM | 0.6 | – | – | – |
| CS(=O)(=O)C[C@H]1O[C@@H](n2cnc3c(N)nc(F)nc32)[C@H](O)[C@@H]1O | 17 µM | 0.3 | 35 µM | 0.1 | 37 µM | 0.1 | 5 µM | 8 µM | 0.6 |
| C[S+]([O-])C[C@H]1O[C@@H](n2cnc3c(N)nc(F)nc32)[C@H](O)[C@@H]1O (stereo not given in full) | 34 µM | 0.4 | 74 µM | 0.2 | 33 µM | 0.4 | 13 µM | 5.8 µM | 2 |
| CNc1nc(C#N)nc2c1ncn2[C@@H]1O[C@H](CSC)[C@@H](O)[C@H]1O | 30 µM | 0.8 | 25 µM | 1 | 22 µM | 1 | – | – | – |
| CC(=O)O[C@@H]1[C@H](OC(C)=O)[C@@H](CS(C)(=O)=O)O[C@H]1n1cnc2c(N)nc(Cl)nc21 | 14 µM | 8 | > 200 µM | < 0.6 | > 200 µM | < 0.6 | 114 µM | 10 µM | 11 |
| O=C(Cn1ccnc1[N+](=O)[O-])NCc1ccccc1 [BENZNIDAZOLE] | – | – | 1.64 µM | – | – | – | > 385 µM | – | – |
| CCN(CC)CCCC(C)Nc1ccnc2cc(Cl)ccc12 (stereo not given) [CHLOROQUINE] | – | – | – | – | – | – | 91 µM | – | – |
| CCCCCCCCCCCCCCCCOP(=O)([O-])OCC[N+](C)(C)C [MILTEFOSINE] | – | – | – | – | 0.3 µM | – | 137 µM | – | – |
